Assay results reported in patent publication US11786597B2, “Ionic liquids for transdermal drug delivery” (priority 2013, dated 2023).
Like-named read-outs stand apart in the source and are kept apart here. Marks after values point to notes of the source that are not given here.

Key:
Conductivity of neat IL = assay type: physicochemical
Protocol: (§1) Determinations of conductivity were made on an ION450 benchtop meter (Radiometer Analytical) with a 2-pole electrode designed for use in viscous liquids (Radiometer Analytical CDC241-9) and calibrated with KCl. Conductivity was measured three times per sample on stirred 3 mL volumes of neat IL at 25° C. Density was measured three times per IL using a 1 mL volumetric flask and an analytical balance.

[1] = system: Normal human bronchial epithelial (NHBE) cells; assay: WST-1 proliferation assay, 24 h exposure to diluted ILs; settings: solubilized in culture medium
Protocol: Normal human bronchial epithelial (NHBE) cells were purchased (Lonza, Walkersville, MD) and cultured using bronchial epithelial cell growth media (BEGM, Clonetics Bullet Kit, Lonza, Walkersville, MD) on 100 mm tissue culture treated Petri dishes (Santa Cruz Biotechnologies, Santa Cruz, CA) coated with 50 μg/mL type I rat tail collagen (BD Biosciences, Bedford, MA). Cells were stored in an incubator with a humidified atmosphere at 37° C. and 5% CO2. Cells were fed two times weekly and passaged via trypsinization. Experimentation was performed in triplicate on cells harvested from passages 3 to 7.
NHBE cells were plated in 96-well tissue culture plates at a concentration of 1.5×10^4 cells/well in a volume of 200 μL and allowed to acclimate overnight. On the day of experimentation, treatment plates were prepared using stock ionic liquid diluted in BEGM and then serially diluted 3-fold for a total of 7 concentrations. The 96-well plates containing cells were then aspirated and the treatments (150 μL/well) were carefully transferred from the prep plate to the cells. Cells were exposed to the ionic liquids for 24 hours. Two hours prior to the end of the exposure time, positive control cell wells were aspirated, and a solution of 1% Triton-100 (150 μL/well) was added.
To assess cellular proliferation, water-soluble tetrazolium (WST-1) reagent (Clontech, Mountain View, CA) was added directly to cells, at a 1:10 dilution of the remaining media volume (7.5 μL of WST-1 reagent was added per 75 μL remaining cell culture media). NHBE cells exposed to media only and 1% Triton in BEGM were included as controls. Ionic liquid controls at the highest concentrations tested were included in wells without cells to rule out ionic liquid/assay reagent interference.

[2] = Determination of lipophilicity (octanol/water distribution by UV absorbance); assay type: physicochemical; settings: for percent in octanol: after extraction with water
Protocol: A 250 mL volume of n-octanol was shaken with 100 mL of ddH2O and left overnight. […]
The absorption of the octanol layer and water layers were measured and compared with the absorbance of the stock solutions. Measurements were repeated three times and the distribution coefficients were reported as the average. The percent of IL in octanol was calculated as the absorbance of the octanol layer after extraction divided by the absorbance of IL in octanol before extraction. The water/octanol distribution coefficient was calculated as the logarithm of the percent of IL in octanol divided by the percent of IL in water.

[3] = Abbott et al. 2006; cited from earlier work
[4] = Solubility in water (physical characterization); settings: 25° C.
[5] = Calculations of molarity and ionic strength; assay type: physicochemical; settings: neat IL, Table 5
[6] = Viscosity (Viscolab 3000 viscometer); assay type: physicochemical
Protocol: Viscosity was measured on 1 mL samples with a Viscolab 3000 viscometer (Cambridge Viscosity, Medford, MA). […] Low-temperature differential scanning calorimetry (DSC) was performed on a DSC882e instrument (Mettler-Toledo Inc., Columbus, Ohio) under N2 atmosphere over two complete scans of a temperature range of −60 to 120° C. with a ramp rate of 10° C. per minute and a sample size of 18-21 mg in an aluminum crucible.

[7] = Density (volumetric flask and balance); assay type: physicochemical
Protocol: as §1

porcine skin [8] = assay: Skin transport of 3H-Mannitol in Franz diffusion cell; assay type: in vitro ADME
Protocol: (§2) FIG. 1 is a schematic of the skin transport experiment set-up and analysis. Porcine skin was loaded into the Franz diffusion cell (FDC) with the stratum corneum (SC) facing up. Skin was incubated in contact with 3H-labeled drug dissolved in donor solution for 24 hrs, at 37° C., with stirring. After 24 hrs the donor solution was removed and skin thoroughly washed. The SC was separated from the epidermis by tape stripping. Ten tape strips were applied, each tape corresponding to 1 “layer” of SC. Ten tape strips were assumed to remove the entire SC. Epidermis was separated from dermis using a razor blade. Acceptor solution was collected, and drug transport into various tissue layers was quantified by scintillation counter.
3H-labeled Mannitol and Cefadroxil were obtained from American Radiolabeled Chemicals, Inc. and Moravek, respectively. FDCs were used to assess the transport enhancement of ionic liquids using a previously established protocol. Karande, et al., “Discovery of transdermal penetration enhancers by high-throughput screening”, Nat Biotechnol, 22(2): 192-7 (2004). Briefly, the acceptor chamber was filled with degassed PBS and a small stir bar added. Thawed porcine skin was clamped in place between the acceptor and donor chambers with the SC facing up. Care was taken to ensure no air bubbles resided in the acceptor chamber. Ionic liquids or PBS (control) were spiked with 3H-labeled drug (Mannitol and Cefadroxil) to a final concentration of 10 μCi/ml. 300 μL of donor solution was added to the donor chamber and incubated in contact with the SC for 24 hr, at 37° C., with stirring.
After 24 hr, the donor solution was removed, and the skin was thoroughly washed and dried.
SC was separated from epidermis by tape stripping. Ten tape strips were performed in an identical fashion, with each tape corresponding to 1 SC “layer”. Ten strips were assumed to remove the majority of the SC. Epidermis was separated from dermis with a razor blade, and the acceptor solution was collected from the acceptor chamber. Samples from each tissue layer and acceptor solution were dissolved in Soluble (Perkin Elmer, Waltham, MA) overnight and the concentration of radiolabeled solute was measured using a scintillation counter (Packard Tri-Carb 2100 TR, Meriden, CT).

porcine skin [9] = assay: Skin transport of 3H-Cefadroxil in Franz diffusion cell; assay type: in vitro ADME; settings: spiked with Cefadroxil
Protocol: as §2
3H-labeled Mannitol and Cefadroxil were obtained from American Radiolabeled Chemicals, Inc. and Moravek, respectively. FDCs were used to assess the transport enhancement of ionic liquids using a previously established protocol. Karande, et al., “Discovery of transdermal penetration enhancers by high-throughput screening”, Nat Biotechnol, 22(2): 192-7 (2004). […]
SC was separated from epidermis by tape stripping. […] Samples from each tissue layer and acceptor solution were dissolved in Soluble (Perkin Elmer, Waltham, MA) overnight and the concentration of radiolabeled solute was measured using a scintillation counter (Packard Tri-Carb 2100 TR, Meriden, CT).

Row | Molecule | conductivity (Conductivity of neat IL; 25° C.) | conductivity (Conductivity of neat IL; Table 5) | percent in octanol ([2]; Table 3) | ionic strength [5] | molarity [5] | viscosity ([6]; 25° C.) | viscosity ([6]; Table 5) | density ([7]; 25° C.) | density ([7]; Table 5) | other results
1 | C[N+](C)(C)CCO.NC(N)=O.NC(N)=O.[Cl-] [LANL-6, urea-choline] | 0.580 mS/cm | 0.580^a mS/cm | 24 +/− 8% | 2.32 M | 4.65 M | 1390 cP | 1386^a cP | 1.21 g/mL | 1.21 g/mL | toxicity to human primary cells [1]: low toxicity; partitioning into octanol [2]: partitioned poorly into octanol; log Po/w ([2]; octanol/water, Table 3): −0.51; viscosity, literature value at 40° C. [3]: 169 cP; solubility in water [4]: miscible; viscosity at 40° C. ([6]; 40° C.): 170 cP; viscosity ([6]; text b171): 1390 cP; drug permeation into the SC (porcine skin [8]; 3H-Mannitol, 24 hr, 37° C.): inhibited drug permeation into the SC
2 | choline geranate [LANL-21] | 0.0431 mS/cm | 0.0431 mS/cm | 66 +/− 3% | 3.39 M | 2.26 M | 1345 cP | 1345 cP | 0.990 g/mL | 0.990 g/mL | conductivity (Conductivity of neat IL; text b172): 0.04 mS/cm; log Po/w [2]: 0.28; partitioning into the dermis and acceptor solution versus control (PBS) (porcine skin [9]): 15-20 times; loss/partitioning of solute to the acceptor solution (porcine skin [8]; 3H-Mannitol): enhanced partitioning into the acceptor solution; transport enhancement into/through all layers of the skin (porcine skin [8]; 3H-Mannitol, relative to PBS control): 5-15 fold; skin transport properties (porcine skin [8]; materials in lower right portion of Walden plot): best skin transport properties
